Legend:
Toxoplasma gondii [1] = test: Antiparasitic activity against Toxoplasma gondii after 4 days by chlorophenol red-beta-D-galactosidase based assay; type: functional, organism-based; settings: 96 h
Cryptosporidium parvum = test: Antiparasitic activity against Cryptosporidium parvum infected in human HCT8 cells incubated for 24 hrs post 3 hrs infection by Hoechst 33258 staining based epifluorescence microscopy; type: functional
Toxoplasma gondii [2] = test: Antiparasitic activity against tachyzoite stage of Toxoplasma gondii RH infected in Swiss Webster mouse assessed as mouse survival for 60 days post infection; type: functional
Toxoplasma gondii [3] = test: Antiparasitic activity against Toxoplasma gondii assessed as population with apicoplast loss after 4 days by Hoechst staining based microscopy; type: functional
Toxoplasma gondii [4] = test: Antiparasitic activity against tachyzoite stage of Toxoplasma gondii infected in LLC-MK2 cells after 6 hrs; type: functional

O=[N+]([O-])c1cccc2ncccc12
IC50 (Toxoplasma gondii [1]): 5 to 6 µM

Cc1cccc(-n2ncc3c(O)nc(-n4nc(C)cc4NC(=O)c4cc5ccccc5o4)nc32)c1
Activity (Cryptosporidium parvum): 0.12 µM

Clc1ccc2ccccc2n1
IC50 (Toxoplasma gondii [1]): 5 to 6 µM

CCOC(=O)c1cn(C2CC2)c2cc(N3CCN(Cc4ccccc4)CC3)c(F)cc2c1=O
Survival (Toxoplasma gondii [2]): 13 - 25%

[O-][n+]1cccc2ccccc21
IC50 (Toxoplasma gondii [1]): 5 to 6 µM

FC(F)(F)c1ccc2c(NCCCN3CCN(c4cccc5nc(Cl)ccc45)CC3)ccnc2c1
IC50 (Toxoplasma gondii [1]): 0.425 µM | Activity (Toxoplasma gondii [3]): 40 - 45%

O=C(O)c1cn(C2CC2)c2cc(N3CCN(CC45CC6CC(CC(C6)C4)C5)CC3)c(F)cc2c1=O
Survival (Toxoplasma gondii [2]): 13 - 25%

COc1cccc(C(=O)NC(c2ccc(C)cc2)c2cc(Cl)c3cccnc3c2O)c1 (centres undefined)
Activity (Cryptosporidium parvum): 0.054 µM

O=C1C2=C(C(=O)c3ccccc31)[C@H]1Oc3ccc(Br)cc3[C@H]1CO2
Activity (Toxoplasma gondii [4]): <1 µM

CCOC(=O)c1cn(C2CC2)c2cc(N3CCNCC3)c(F)cc2c1=O [CIPROFLOXACIN ETHYL ESTER]
Survival (Toxoplasma gondii [2]): 13 - 25%

O=C(O)c1cn(C2CC2)c2cc(N3CCNCC3)c(F)cc2c1=O [CIPROFLOXACIN]
Survival (Toxoplasma gondii [2]): 13 - 25%

Oc1cccc2cccnc12 [OXYQUINOLINE]
IC50 (Toxoplasma gondii [1]): 0.213 µM

c1ccc2ncccc2c1 [QUINOLINE]
IC50 (Toxoplasma gondii [1]): 5 to 6 µM
